Reference: publication PMC7967160, “Synthesis and Antiviral Evaluation of (1,4-Disubstituted-1,2,3-Triazol)-(E)-2-Methyl-but-2-Enyl Nucleoside Phosphonate Prodrugs” (Molecules, 2021)

Experiments:
HIV-1 LAI = assay: HIV assay in human PBM cells infected with HIV-1 LAI, RT quantification; type: cell-based; details: for inhibition at 10 µM: Human immunodeficiency virus 1, PBMC, PBM cells, HIV-1 LAI
Procedure: The assay was performed as described by Schinazi et al. with minor modifications. […] The supernatants were harvested, and the HIV-1 RT was quantified.

HBV [1] = assay: HBV assay in Huh7 cells transfected with pCI_HBVpg1820, intracapsid viral DNA by real-time PCR; type: cell-based, hepatitis B virus (HBV); details: for inhibition at 10 µM: Hepatitis B virus, Huh-7, 96 h
Procedure: In Huh7 cells: antiviral activity against HBV in cell culture was measured as previously described. Briefly, Huh7 cells were transfected with plasmid pCI_HBVpg1820 containing 1.1 unit of HBV genome under the control of a human cytomegalovirus (CMV) promoter. The drugs were stored at 1000× in DMSO at −20 °C. For each experiment, the drugs were diluted in DMEM cell culture medium (Thermo Fisher Scientific, Artenay, France) to a final concentration of 10 μM. All drugs were tested in triplicate in two independent experiments. After 4 days of culture, intracapsid viral DNA was quantified by duplex real-time PCR, using primers described elsewhere, on a LightCycler 480 II apparatus (Roche Diagnostics France, Meylan, France) using TaqMan Universal PCR Mastermix II without UNG (Thermo Fisher Scientific, Artenay, France). Cells were quantified using primers by real-time PCR, using primers HPRT1_F (5′-[…]) and HPRT1_R (5′-[…]), on a LightCycler 480 II apparatus (Roche) using a LightCycler® 480 SYBR Green I Master (Roche Diagnostics France, Meylan, France). Cycling reactions were performed with the following parameters: 5 min at 95 °C, followed by 45 cycles of 10 s at 95 °C, 15 s at 60 °C, 10 s at 72 °C. The inhibition of HBV replication (%) and cell culture viability (%) were quantified using the following formulas. Inhibition of HBV replication (%)=1− HBV DNA copy numberDrug/HBV DNA copy numberCell culture medium Cell viability (%)= HPRT1 DNA copy numberDrug/HPRT1 DNA copy numberCell culture medium

HBV [2] = assay: HBV assay in HepAD38 cells, real-time PCR for HBV DNA in supernatant; type: cell-based; details: Hepatitis B virus, 168 h, 7 days
Procedure: In HepAD38 cells were seeded at 50,000 cells/well in collagen-coated 96-well plates. Test compounds or 2′,3′-didéoxy-3′-thiacytidin (3TC) (control) were added to HepAD38 cells to a final concentration of 10 μM.
Real-Time PCR for HBV DNA. The experiment lasted 7 days. On day 7, total DNA was purified from the supernatant using a commercially available kit (DNeasy 96 Blood & Tissue kit, Qiagen). The HBV DNA was amplified in a real-time PCR assay using a LightCycler 480 (Roche) as described elsewhere. All samples were tested in duplicate in two to three independent experiments. Analysis: The concentration of compound that inhibited HBV DNA replication by 50% (EC50) was determined by linear regression.

in vitro = type: cell-based; details: human; PBM cells; read-out: MTS Cytotoxicity (IC50, μM) PBM
Procedure: (§1) Assays were performed in human peripheral blood mononuclear (PBM) and human liver (HepG2) cells via MTS assay using the CellTiter 96® Non-Radioactive Cell Proliferation (Promega) kit as previously described^3. Cytotoxicity was expressed as the concentration of test compounds that inhibited cell proliferation by 50% (IC50) and calculated using the Chou and Talalay method.

[3] = Cytotoxicity MTS assay in HepG2 cells; type: cell-based; details: human
Procedure: as §1

[4] = tested on: SARS-CoV-2 strain BavPat1; assay: SARS-CoV-2 assay in Vero E6 cells (CellTiter-Blue); details: 10 μM
[5] = Cell culture viability in the Huh7 HBV assay (HPRT1 DNA copy number); details: human
[6] = read-out: HBV % Inhibition Huh7, 10 μM, Huh7 cells, 4 days
[7] = 10 μM, Huh7 cells, 4 days, read-out: HBV % Inhibition Huh7

Row | SMILES | EC50 (HIV-1 LAI; positive control, data not shown, read-out: EC50 anti-HIV) | HBV % Inhibition Huh7 (HBV [1]; 10 μM, Huh7 cells, 4 days) | inhibition at 10 µM (HBV [1]; [6]) | inhibition at 10 µM (HBV [2]) | inhibition at 10 µM (HIV-1 LAI) | IC50 (in vitro) | IC50 [3] | SARS-CoV-2 % Inhibition Vero E6 [4] | viability at 4 days, 10 µM [5] | inhibition at 10 µM (HBV [1]; [7])
1 | Cc1cn([C@H]2C[C@H](N=[N+]=[N-])[C@@H](CO)O2)c(=O)[nH]c1=O [AZT, reference compound] | 0.008 µM |  |  |  |  |  |  |  |  | 
2 | CCCc1ccc(-c2cn(C/C(C)=C/CP(=O)(OCOC(=O)OC(C)C)OCOC(=O)OC(C)C)nn2)cc1 [Compound 11a, [[(E)-4-[4-(4-Propylphenyl)triazol-1-yl]-3-methyl-but-2-enyl]-(isopropoxycarbonyloxymethoxy)phosphoryl]oxymethyl isopropyl carbonate] |  | 51% | > 40% | 19.6% | < 1% | 50.2 µM | 18.3 µM | <1% | 96% | 
3 | CCCCc1ccc(-c2cn(C/C(C)=C/CP(=O)(OCOC(=O)OC(C)C)OCOC(=O)OC(C)C)nn2)cc1 [Compound 11b, [[(E)-4-[4-(4-Butylphenyl)triazol-1-yl]-3-methyl-but-2-enyl]-(isopropoxycarbonyloxymethoxy)phosphoryl]oxymethyl isopropyl carbonate] |  |  |  | 14.4% | < 1% | 19.4 µM | 16.2 µM | <1% | 88% | 25%
4 | CCCCCc1ccc(-c2cn(C/C(C)=C/CP(=O)(OCOC(=O)OC(C)C)OCOC(=O)OC(C)C)nn2)cc1 [Compound 11c, [[(E)-4-[4-(4-Pentylphenyl)triazol-1-yl]-3-methyl-but-2-enyl]-(isopropoxycarbonyloxymethoxy)phosphoryl]oxymethyl isopropyl carbonate] |  | 42% | > 40% | < 1% | 44.4% | 47.8 µM | 51.8 µM | <1% | 89% | 
5 | CCCCCCc1ccc(-c2cn(C/C(C)=C/CP(=O)(OCOC(=O)OC(C)C)OCOC(=O)OC(C)C)nn2)cc1 [Compound 11d, [[(E)-4-[4-(4-Hexylphenyl)triazol-1-yl]-3-methyl-but-2-enyl]-(isopropoxycarbonyloxymethoxy)phosphoryl]oxymethyl isopropyl carbonate] |  |  |  | 38.8% | 41.8% | 23.7 µM | 59.6 µM | <1% | 100% | 39%
6 | CCCCCCCc1ccc(-c2cn(C/C(C)=C/CP(=O)(OCOC(=O)OC(C)C)OCOC(=O)OC(C)C)nn2)cc1 [Compound 11e, [[(E)-4-[4-(4-Heptylphenyl)triazol-1-yl]-3-methyl-but-2-enyl]-(isopropoxycarbonyloxymethoxy)phosphoryl]oxymethyl isopropyl carbonate] |  | 50% | > 40% | 33.5% | 29.9% | 9.2 µM | 90.8 µM | <1% | 95% | 
7 | C/C(=C\CP(=O)(OCOC(=O)OC(C)C)OCOC(=O)OC(C)C)Cn1cc(C2CC2)nn1 [Compound 11f, [[(E)-4-(4-Cyclopropyltriazol-1-yl)-3-methyl-but-2-enyl]-(isopropoxycarbonyloxymethoxy)phosphoryl]oxymethyl isopropyl carbonate] |  |  |  | 36.3% | 30.7% | 25.5 µM | > 100 µM | <1% | 100% | < 1%
8 | C/C(=C\CP(=O)(OCOC(=O)OC(C)C)OCOC(=O)OC(C)C)Cn1cc(C(C)(C)C)nn1 [Compound 11g, [[(E)-4-(4-tert-Butyltriazol-1-yl)-3-methyl-but-2-enyl]-(isopropoxycarbonyloxymethoxy)phosphoryl]oxymethyl isopropyl carbonate] |  |  |  | 17.3% | 12.3% | 28.3 µM | > 100 µM | <1% | 79% | 10%
9 | C/C(=C\CP(=O)(OCOC(=O)OC(C)C)OCOC(=O)OC(C)C)Cn1cc(CO)nn1 [Compound 11h, [[(E)-4-[4-(Hydroxymethyl)triazol-1-yl]-3-methyl-but-2-enyl]-(isopropoxycarbonyloxymethoxy)phosphoryl]oxymethyl isopropyl carbonate] |  |  |  | 15.1% | < 1% | 76.4 µM | > 100 µM | 12% | 100% | 28%
10 | C/C(=C\CP(=O)(OCOC(=O)OC(C)C)OCOC(=O)OC(C)C)Cn1cc(C=O)nn1 [Compound 11i, [[(E)-4-(4-Formyltriazol-1-yl)-3-methyl-but-2-enyl]-(isopropoxycarbonyloxymethoxy)phosphoryl]oxymethyl isopropyl carbonate] |  |  |  | 6.1% | 28.4% | 75.1 µM | > 100 µM | <1% | 95% | 33%
11 | C/C(=C\CP(=O)(OCOC(=O)OC(C)C)OCOC(=O)OC(C)C)Cn1cc(C(=O)O)nn1 [Compound 11m, 1-[(E)-4-[Bis(isopropoxycarbonyloxymethoxy)phosphoryl]-2-methyl-but-2-enyl]triazole-4-carboxylic acid] |  |  |  | 41.3% | 12.9% |  | > 100 µM | <1% | 57% | 12%
12 | CCCCCCCCCCCCCCCCOCCCOP(=O)(C/C=C(\C)Cn1cc(-c2ccc(CCC)cc2)nn1)OCOC(=O)OC(C)C (stereo not shown) [Compound 15a, [3-Hexadecyloxypropoxy-[(E)-3-methyl-4-[4-(4-propylphenyl]triazol-1-yl]but-2-enyl]phosphoryl]oxymethyl isopropyl carbonate] |  |  |  |  |  |  |  | <1% | 95% | < 1%
13 | CCCCCCCCCCCCCCCCOCCCOP(=O)(C/C=C(\C)Cn1cc(-c2ccc(CCCCCCC)cc2)nn1)OCOC(=O)OC(C)C (stereo not shown) [Compound 15e, [3-Hexadecyloxypropoxy-[(E)-3-methyl-4-[4-(heptylphenyl)triazol-1-yl]but-2-enyl]phosphoryl]oxymethyl isopropyl carbonate] |  |  |  |  |  |  |  | <1% | 100% | 8%
14 | CCCCCCCCCCCCCCCCOCCCOP(=O)(C/C=C(\C)Cn1cc(-c2ccc([N+](=O)[O-])cc2)nn1)OCOC(=O)OC(C)C (stereo not shown) [Compound 15l, [3-Hexadecyloxypropoxy-[(E)-3-methyl-4-[4-(nitrophenyl)triazol-1-yl]but-2-enyl]phosphoryl]oxymethyl isopropyl carbonate] |  |  |  |  |  |  |  | <1% | 100% | 12%
15 | CCC(CC)COC(=O)[C@H](C)N[P@](=O)(OC[C@H]1O[C@@](C#N)(c2ccc3c(N)ncnn23)[C@H](O)[C@@H]1O)Oc1ccccc1 [Remdesivir, reference compound] |  |  |  |  |  |  |  | 100% |  | 
16 | C[C@@H]1C[C@@H]([C@H](O)CC2CC(=O)NC(=O)C2)C(=O)[C@@H](C)C1 [cycloheximide, reference compound] |  |  |  |  |  | 1 µM | 1.5 µM |  |  | 
